Measurements taken from US20250221936A1, “ENGINEERED HEMICHANNELS, ENGINEERED VESICLES, AND USES THEREOF” (VIRGINIA TECH INTELLECTUAL PROPERTIES, INC., priority 2018, published 2025).
Like-named read-outs stand apart in the source and are kept apart here.

What was measured:
PKC-ε = target: T1, PKC-ε (Homo sapiens, UniProt Q02156); assay: EDC cross-linking and MS/MS, PKC-ε; type: binding
T1 construct: purchased Life 37717L
T1 sequence (Q02156 1-737): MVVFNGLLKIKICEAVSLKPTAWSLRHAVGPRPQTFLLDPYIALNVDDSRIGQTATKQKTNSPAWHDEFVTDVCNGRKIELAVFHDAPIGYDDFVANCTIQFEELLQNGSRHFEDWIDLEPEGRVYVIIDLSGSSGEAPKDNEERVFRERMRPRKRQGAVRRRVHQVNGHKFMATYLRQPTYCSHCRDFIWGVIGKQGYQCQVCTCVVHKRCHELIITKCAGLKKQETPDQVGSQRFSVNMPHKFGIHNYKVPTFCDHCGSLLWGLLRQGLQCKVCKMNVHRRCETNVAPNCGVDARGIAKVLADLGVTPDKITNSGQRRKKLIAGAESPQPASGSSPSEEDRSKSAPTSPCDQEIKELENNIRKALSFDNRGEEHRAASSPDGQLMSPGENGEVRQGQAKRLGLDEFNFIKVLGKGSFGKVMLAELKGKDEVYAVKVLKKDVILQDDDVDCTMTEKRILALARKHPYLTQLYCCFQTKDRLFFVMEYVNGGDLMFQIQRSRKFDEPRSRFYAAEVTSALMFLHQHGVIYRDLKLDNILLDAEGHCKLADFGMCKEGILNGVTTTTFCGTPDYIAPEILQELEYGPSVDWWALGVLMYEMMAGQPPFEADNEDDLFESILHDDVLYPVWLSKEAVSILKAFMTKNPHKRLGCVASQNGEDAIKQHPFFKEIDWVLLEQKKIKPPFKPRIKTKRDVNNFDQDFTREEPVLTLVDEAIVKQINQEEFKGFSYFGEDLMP
Protocol: To characterize the interaction between the Cx43 CT substrate and peptides, the in vitro kinase assay was performed as above with modification and the constituents then subjected to a cross-linking reaction. The assay buffer used was 20 mM 3-(N-morpholino) propanesulfonic acid (MOPS), pH 7.2. All other reagents present in the kinase reaction were maintained as described above. The reaction was allowed to proceed at 37° C. for 15 minutes. Afterwards, the carbodiimide crosslinker 1-Ethyl-3-(3-dimethylaminopropyl) carbodiimide HCl (EDC) (Thermo, 22980) was added to each solution for a final concentration of 20 mM. The solution was allowed to cross-link for one hour at room temperature. The reaction was stopped by the addition of 4×LDS loading buffer, boiled for 5 minutes and subsequently separated by PAGE. The resulting gel was stained in Coomassie brilliant blue (Sigma, B0770) for two hours and destained in a solution of 4% methanol 7% acetic acid overnight. Gel bands were subsequently excised for mass spectrometric analysis. For the direct interaction between protein and peptides, PBS, pH 7.5 was used as the coupling buffer. The protein (50 μg/ml) and peptide (25 μM) were allowed to react at room temperature for one hour before EDAC was added to the reaction mixture. The reaction was Western blotted for Cx43, GST or NeutroAvidin. […]

[1] = test system: 8 mm diameter round wound; conditions: cited from earlier work
[2] = test system: human MGMT-deficient and TMZ-resistant GBM cells; conditions: cited from earlier work
silicone implants = conditions: days 1, 2, 3, 14, and 28; cited from earlier work
[3] = test system: 4 mm long incisional skin injury; conditions: 60 μM in 20% pluronic gel, cited from earlier work

## RQPKIWFPNRRKPWKKRPRPDDLEI [alpha CT1]
PKC-ε
  interaction with PKC-ε: no evidence for interaction between PKCE and alpha CT1
[1]; 150 μM peptide, collagen gel, 30 days
  scar size: significantly (p<0.05) smaller than the controls
[1]; rat, in vivo
  wound closure rate: consistent significantly faster closure rates than the other 4 wounds
[2]
  sensitivity to TMZ: sensitized human MGMT-deficient and TMZ-resistant GBM cells to TMZ treatment
Silicone implants
  wound-healing and foreign body responses: attenuating neutrophil infiltration, increasing vascularity of the capsule tissue, reducing type I collagen deposition around the implant, and reducing the continued presence of contractile myofibroblasts
[3]; at 7 days
  appearance of incisional injury: smoother and less scarred appearance
[3]; by 48 hours
  appearance of incisional injury: significantly more closed, less inflamed, less swollen
